Laboratory results taken from patent publication US20180194762A1 (Pharmacyclics LLC, priority 2017, published 2018).

Target: T1, Btk (Homo sapiens, UniProt Q06187)
T1 construct: purified from insect cells as a full-length construct containing a N-terminal 6X-His tag; His6 (N); made in house; host or cells: insect cells (Method C)
Assay: Btk in vitro inhibitory activity (one of Method A TR-FRET, Method B electrophoretic mobility shift, Method C radiometric filter binding)
Format: biochemical
Settings: method is one of A, B or C, not stated which; read-out: IC50 values against Btk
Experimental: Example 62a: Btk In Vitro Inhibitory Activity (Method A)
Btk kinase activity is determined using a time-resolved fluorescence resonance energy transfer (TR-FRET) methodology. Measurements are performed in a reaction volume of 50 μL using 96-well assay plates. […] The reaction is quenched by the addition of 1.2 equivalents of EDTA (relative to divalent cation) in 25 μL of 1× Lance buffer (Perkin-Elmer). Streptavidin-APC (Perkin-Elmer) and Eu-labeled p-Tyr100 antibody (Perkin-Elmer) in 1× Lance buffer are added in a 25 μL volume to give final concentrations of 100 nM and 2.5 nM, respectively, and the mixture is allowed to incubate for one hour. The TR-FRET signal is measured on a multimode plate reader with an excitation wavelength (λEx) of 330 nm and detection wavelengths (λEm) of 615 and 665 nm. Activity is determined by the ratio of the fluorescence at 665 nm to that at 615 nm. For each compound, enzyme activity is measured at various concentrations of compound. Negative control reactions are performed in the absence of inhibitor in replicates of six, and two no-enzyme controls are used to determine baseline fluorescence levels. Inhibition constants, Ki(app), were obtained using the program BatchKi (Kuzmic et al. (2000), Anal. Biochem. 286:45-50). IC50s are obtained according to the equation:
IC50={Ki(app)/(1+[ATP]/Km^ATP)}+[E]total/2;
For all kinases, [ATP]=Km^ATP, [Btk]total=0.5 nM and [Lck]total=6 nM.
Example 62b: Btk In Vitro Inhibitory Activity (Method B)
Kinase activity is measured in vitro using electrophoretic mobility shift assay. The kinase reactions are assembled in a total volume of 25 μL in 384 well plates. The reactions comprise: BTK enzyme (1 nM, N-terminal His6-tagged, recombinant, full-length, human BTK purified from baculovirus Sf21 insect cell system, 293HEK, or other suitable source), inhibitor, ATP, fluorescently labeled peptide substrate (1 μM, FAM-GEEPLYWSFPAKKK-NH2) in a reaction buffer composed of 100 mM HEPES, pH7.5, 5 mM MgCl2 1 mM DTT, 0.1% bovine serum albumin, 0.01% Triton X-100, and 1% DMSO. The reaction is incubated and is quenched by the addition of termination buffer (100 mM HEPES, pH 7.5, 0.01% Triton X-100, 30 mM EDTA). The terminated reactions are analyzed using a 12 channel LabChip® 3000 microfluidic detection instrument (Caliper Life Sciences). The enzymatic phosphorylation of the peptide results in a change in net charge, enabling electrophoretic separation of product from substrate peptide. As substrate and product peptides are separated, two peaks of fluorescence are observed. Change in the relative fluorescence intensity of the substrate and product peaks is the parameter measured, reflecting enzyme activity. In the presence of an inhibitor, the ratio between product and substrate is altered: the signal of the product decreases, while the signal of the substrate increases.
Activity in each sample is determined as the product to sum ratio (PSR):P/(S+P), where P is the peak height of the product peptide and S is the peak height of the substrate peptide. For each compound, enzyme activity is measured at various concentrations (12 concentrations of compound spaced by 3× dilution intervals). Negative control samples (0%—inhibition in the absence of inhibitor) and positive control samples (100%—inhibition, in the presence of 20 mM EDTA) are assembled in replicates of four and are used to calculate %—inhibition values for each inhibitor at each concentration. Percent inhibition (Pinh) is determined using following equation:
Pinh=(PSR0%−PSRinh)/(PSR0%−PSR100%)*100, where PSRinh is the product sum ratio in the presence of inhibitor, PSR0% is the average product sum ration in the absence of inhibitor and PSR100% is the average product sum ratio in 100%—inhibition control samples.
The IC50 values of inhibitors are determined by 4 parameter sigmoidal dose-response model fitting of the inhibition curves (Pinh versus inhibitor concentration) using XLfit 4 software. […]

T1 sequence (Q06187 whole entry): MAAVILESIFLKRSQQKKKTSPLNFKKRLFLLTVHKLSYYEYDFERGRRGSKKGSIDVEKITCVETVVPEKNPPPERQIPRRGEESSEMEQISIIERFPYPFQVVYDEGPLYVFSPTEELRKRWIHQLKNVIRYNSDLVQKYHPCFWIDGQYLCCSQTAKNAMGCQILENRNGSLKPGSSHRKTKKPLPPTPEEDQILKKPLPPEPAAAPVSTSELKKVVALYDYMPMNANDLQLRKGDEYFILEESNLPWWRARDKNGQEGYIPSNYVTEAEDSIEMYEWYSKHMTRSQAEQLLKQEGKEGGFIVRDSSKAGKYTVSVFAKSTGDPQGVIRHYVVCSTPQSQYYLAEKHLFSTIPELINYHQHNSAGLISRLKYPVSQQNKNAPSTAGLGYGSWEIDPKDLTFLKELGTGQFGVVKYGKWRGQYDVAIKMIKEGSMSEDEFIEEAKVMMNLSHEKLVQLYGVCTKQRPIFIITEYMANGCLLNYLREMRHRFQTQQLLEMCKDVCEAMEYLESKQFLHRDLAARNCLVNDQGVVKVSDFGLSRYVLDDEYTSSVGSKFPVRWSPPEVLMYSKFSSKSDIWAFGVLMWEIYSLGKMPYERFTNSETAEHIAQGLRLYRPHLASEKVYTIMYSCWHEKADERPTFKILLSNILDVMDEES

Row | SMILES | IC50 [nM]
1 | CC#CC(=O)N1CC[C@@H](Nc2n[nH]c3nccc(-c4ccc(CNC(=O)c5ccc(C(C)(C)C)cc5)c(F)c4)c23)C1 [Example 7, N-{[4-(3-{[(3R)-1-(but-2-ynoyl)pyrrolidin-3-yl]amino}-1H-pyrazolo[3,4-b]pyridin-4-yl)-2-fluorophenyl]methyl}-4-tert-butylbenzamide] | < 10
2 | C=CC(=O)N1CC[C@@H](Nc2n[nH]c3nccc(-c4cccc(NC(=O)c5ccc(C(C)(C)C)cc5)c4C)c23)C1 [Example 9, 4-tert-butyl-N-[2-methyl-3-(3-{[(3R)-1-(prop-2-enoyl)pyrrolidin-3-yl]amino}-1H-pyrazolo[3,4-b]pyridin-4-yl)phenyl]benzamide] | < 10
3 | C=CC(=O)N1CC[C@@H](Nc2n[nH]c3nccc(-c4cccc(-n5ccc6cc(C7CC7)cc(F)c6c5=O)c4CO)c23)C1 [Example 18, 6-cyclopropyl-8-fluoro-2-[2-(hydroxymethyl)-3-(3-{[(3R)-1-(prop-2-enoyl)pyrrolidin-3-yl]amino}-1H-pyrazolo[3,4-b]pyridin-4-yl)phenyl]-1,2-dihydroisoquinolin-1-one] | < 10
4 | C=CC(=O)N1CC[C@@H](Nc2n[nH]c3nccc(-c4ccc(CNC(=O)c5ccccc5)c(F)c4)c23)C1 [Example 33, N-{[2-fluoro-4-(3-{[(3R)-1-(prop-2-enoyl)pyrrolidin-3-yl]amino}-1H-pyrazolo[3,4-b]pyridin-4-yl)phenyl]methyl}benzamide] | < 10
5 | C=CC(=O)N1CC[C@@H](Nc2n[nH]c3nccc(-c4ccc(CNC(=O)c5ccc(C)cc5)c(F)c4)c23)C1 [Example 34, N-{[2-fluoro-4-(3-{[(3R)-1-(prop-2-enoyl)pyrrolidin-3-yl]amino}-1H-pyrazolo[3,4-b]pyridin-4-yl)phenyl]methyl}-4-methylbenzamide] | < 10

The remaining lines, values ahead:

Row | IC50 [nM] | SMILES
6 | < 10 | CC(C)(C)c1nc(C(=O)NCc2ccc(-c3ccnc4[nH]nc(NC5CCNC5)c34)cc2F)no1 (stereo in doubt) [Example 50]
7 | < 10 | C=CC(=O)N1CC[C@@H](Nc2n[nH]c3nccc(-c4ccc(C5(NC(=O)c6noc(C(C)(C)C)n6)CC5)cc4)c23)C1 [Example 4, 5-tert-butyl-N-{1-[4-(3-{[(3R)-1-(prop-2-enoyl)pyrrolidin-3-yl]amino}-1H-pyrazolo[3,4-b]pyridin-4-yl)phenyl]cyclopropyl}-1,2,4-oxadiazole-3-carboxamide]
8 | < 10 | C=CC(=O)N1CC[C@@H](Nc2n[nH]c3nccc(-c4ccc(CNC(=O)c5ccc(C(C)(C)C)cc5)c(F)c4)c23)C1 [Example 6, 4-tert-butyl-N-{[2-fluoro-4-(3-{[(3R)-1-(prop-2-enoyl)pyrrolidin-3-yl]amino}-1H-pyrazolo[3,4-b]pyridin-4-yl)phenyl]methyl}benzamide]

Same assay, conditions: wild-type Btk; read-out: Btk-WT IC50

Row | SMILES | IC50 [nM]
9 | C[C@@H](NC(=O)c1nc(C(C)(C)C)no1)c1ccc(-c2ccnc3[nH]nc(NC4CCCCC4)c23)cc1 [Example 202, 3-tert-butyl-N-[(1R)-1-{4-[3-(cyclohexylamino)-1H-pyrazolo[3,4-b]pyridin-4-yl]phenyl}ethyl]-1,2,4-oxadiazole-5-carboxamide] | 31
10 | CC(C)(C)c1noc(C(=O)NCc2ccc(-c3ccnc4[nH]nc(N5CCCC5=O)c34)cc2F)n1 [Example 245, 3-tert-butyl-N-({2-fluoro-4-[3-(2-oxopyrrolidin-1-yl)-1H-pyrazolo[3,4-b]pyridin-4-yl]phenyl}methyl)-1,2,4-oxadiazole-5-carboxamide] | 145
11 | C[C@H]1CC[C@@H](Nc2n[nH]c3nccc(-c4ccc(CNC(=O)c5noc(C(C)(C)C)n5)cc4CO)c23)CN1C(=O)N(C)C [Example 251, (2S,5R)-5-({4-[4-{[(5-tert-butyl-1,2,4-oxadiazole-3-carbonyl)amino]methyl}-2-(hydroxymethyl)phenyl]-1H-pyrazolo[3,4-b]pyridin-3-yl}amino)-N,N,2-trimethylpiperidine-1-carboxamide] | 64.6
12 | CC(C)(C)c1nc(C(=O)NCc2ccc(-c3ccnc4[nH]nc(OC5CCNC5)c34)cc2F)no1 (centres unmarked) [Example 269, 5-tert-butyl-N-[(2-fluoro-4-{3-[(pyrrolidin-3-yl)oxy]-1H-pyrazolo[3,4-b]pyridin-4-yl}phenyl)methyl]-1,2,4-oxadiazole-3-carboxamide] | 26.3
13 | C[C@H](NC(=O)c1noc(C(C)(C)C)n1)c1ccc(-c2ccnc3[nH]nc(N[C@@H]4CCNC4)c23)cc1F [Example 290, 5-tert-butyl-N-{(1S)-1-[2-fluoro-4-(3-{[(3R)-pyrrolidin-3-yl]amino}-1H-pyrazolo[3,4-b]pyridin-4-yl)phenyl]ethyl}-1,2,4-oxadiazole-3-carboxamide] | 81.4

Target: T2, TEC (Homo sapiens, UniProt P42680)
T2 sequence (P42680 1-631): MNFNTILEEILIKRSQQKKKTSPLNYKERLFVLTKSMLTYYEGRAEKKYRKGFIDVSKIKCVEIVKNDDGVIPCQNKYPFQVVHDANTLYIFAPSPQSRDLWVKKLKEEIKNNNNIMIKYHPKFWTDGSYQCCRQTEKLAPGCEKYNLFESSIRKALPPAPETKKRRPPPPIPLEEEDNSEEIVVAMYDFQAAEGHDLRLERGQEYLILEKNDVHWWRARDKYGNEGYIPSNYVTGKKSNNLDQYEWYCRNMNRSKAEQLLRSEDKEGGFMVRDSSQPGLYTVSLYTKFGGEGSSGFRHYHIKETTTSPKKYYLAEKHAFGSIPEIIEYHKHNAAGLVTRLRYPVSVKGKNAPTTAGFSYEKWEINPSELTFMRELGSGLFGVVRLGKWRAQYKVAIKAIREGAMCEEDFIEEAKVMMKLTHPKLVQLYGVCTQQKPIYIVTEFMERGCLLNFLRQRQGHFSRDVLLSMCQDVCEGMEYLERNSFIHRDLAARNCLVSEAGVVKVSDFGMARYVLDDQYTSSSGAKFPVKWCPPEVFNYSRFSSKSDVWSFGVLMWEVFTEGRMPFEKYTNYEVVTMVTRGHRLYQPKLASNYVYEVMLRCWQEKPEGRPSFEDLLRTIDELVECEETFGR
Assay: Inhibition of a panel of kinases (in vitro HotSpot kinase assay, 33P-ATP, 1 μM ATP)
Format: biochemical
Settings: HotSpot kinase assay, 1 μM ATP
Experimental: Example 63: Inhibition of a Panel of Kinases The degree of inhibition of a panel of kinases is determined using the in vitro HotSpot kinase assay (purified enzymes, ^33P-ATP, an appropriate substrate and 1 μM ATP).

Row | SMILES | IC50 [nM]
14 | C=CC(=O)N1CC[C@@H](Nc2n[nH]c3nccc(-c4ccnc(NC(=O)c5noc(C(C)(C)C)n5)c4C)c23)C1 [Example 288, 5-tert-butyl-N-[3-methyl-4-(3-{[(3R)-1-(prop-2-enoyl)pyrrolidin-3-yl]amino}-1H-pyrazolo[3,4-b]pyridin-4-yl)pyridin-2-yl]-1,2,4-oxadiazole-3-carboxamide] | 9680

Same assay, conditions: ratio of TEC IC50 to Btk IC50 (selectivity)

Row | SMILES | TEC/Btk
15 | CC(C)(C)c1ccc(C(=O)Nc2cccc(-c3ccnc4[nH]nc(N[C@H]5CC[C@H](O)CC5)c34)c2)cc1 [Compound 13, 4-tert-butyl-N-[3-(3-{[(1r,4r)-4-hydroxycyclohexyl]amino}-1H-pyrazolo[3,4-b]pyridin-4-yl)phenyl]benzamide] | 10
16 | Cc1c(NC(=O)c2ccc(C(C)(C)C)cc2)cccc1-c1ccnc2[nH]nc(N[C@H]3CC[C@H](O)CC3)c12 [Compound 14, 4-(tert-butyl)-N-(3-(3-(((1r,4r)-4-hydroxycyclohexyl)amino)-1H-pyrazolo[3,4-b]pyridin-4-yl)-2-methylphenyl)benzamide] | 10
17 | CC(C)(C)c1ccc(C(=O)Nc2ccc(-c3ccnc4[nH]nc(N[C@H]5CC[C@H](O)CC5)c34)cc2F)cc1 [Compound 15, 4-tert-butyl-N-[2-fluoro-4-(3-{[(1r,4r)-4-hydroxycyclohexyl]amino}-1H-pyrazolo[3,4-b]pyridin-4-yl)phenyl]benzamide] | 10
